Assay results from patent publication EP0312346B1, “E. coli sequence specific acid protease” (GENENCOR INTERNATIONAL, INC., priority 1987, dated 1989).

Test system: acid protease of E.coli
Test: Inhibition of the protease cleaving activity (lysis at pH 5, 26 Kd CCP fragment on Western blot)
Assay type: biochemical
Text: E.coli expressing CCP was lysed at pH 5 in the presence of increasing concentrations of poly-L-lysine or poly-L-arginine. Any protease activity was evidenced by the appearance of the 26 Kd fragment on Western blot. […] No 26 Kd fragment appeared; DTT, PMSF and EDTA had no inhibitory effect on the lysine-lysine lysine-arginine, arginine-lysine or arginine-arginine cleaving activity of the protease.

[1] = 1 mM inhibitor, E.coli expressing CCP lysed at pH 5, no 26 Kd fragment appeared on Western blot

Row | Substance | inhibition of the protease activity [1] | inhibition of the protease activity (no concentration stated)
1 | poly-L-arginine | completely inhibited | inhibited
2 | poly-L-lysine | completely inhibited | inhibited
